Results as given in patent US6517812B1, “Inhibition of psychostimulant-induced and nicotine-induced craving” (The General Hospital Corporation, priority 1997, dated 2003).
Where “and” joins values, the source holds several entries; their conditions need not be identical. Equal values may be shown once. Read-outs that look alike come from different tables or passages of the source.

How the values were obtained:
[1] = Plasma cocaine levels after IV infusion (liquid chromatography with photodiode array detection); format: in vivo; settings: human, 0.6 mg/kg IV; for Cmax: plasma, iv
Method: Sequential 4 ml venous blood samples were collected immediately before and at 1, 3, 5, 10, 15, 30, 60, 90 and 120 minutes following each infusion. The 120 minute sample for the first infusion was also the pre-infusion sample for the second infusion.
Plasma/Urine Levels: Cocaine quantitative assays were performed by the MGH Clinical Chemistry Laboratory using a liquid chromatography with photodiode array detection method they developed (Puopolo et al., 1992, Clin. Chem. 38:1838-1842), with minor modifications (flow rate increased from 2.0 to 2.6 ml/minute and LCPCN column length increased from 150 to 250 mm). Intra-assay imprecision at […] for cocaine is 5.1%, 5.7% and 6.6% respectively.

[2] = test system: human brain, limbic and paralimbic regions; experiment: BOLD fMRI of brain activation after cocaine infusion (KS maps, pre vs post infusion); format: in vivo; settings: voxels p<10^−5, four subjects
Method: Scanning was performed with a quadrature head-coil and a 1.5 T MR scanner (General Electric) modified for echo-planar imaging (Advanced NMR). Imaging involved the following protocol. First, a sagittal localizer scan [conventional T1-weighted spoiled gradient refocused gradient echo (SPGR) sequence; through-plane resolution=2.8 mm; 60 slices] was performed to orient, for subsequent scans, 15 contiguous axial slices covering the whole brain. This scan was also used as the structural scan for Talairach transformation. Next, an automated shimming technique was used to optimize B0 homogeneity (Reese et al., 1995, J. Magn. Reson. Imaging 5:739-745). This was followed by a SPGR T1-weighted flow-compensated scan (resolution=1.6 mm×1.6 mm×8 mm) scan, which was primarily obtained to aid Talairach transformation during data analysis (see Breiter et al., 1996, Arch. Gen. Psychiatry 53:595-606). The fourth scan was a T1-weighted echo planar inversion recovery sequence (TI=1200 msec, in-plane resolution=1.57 mm) for high-resolution structural images to be used in preliminary statistical maps, but not with Talairach transformed or averaged maps. Finally, BOLD imaging was performed using an asymmetric spin echo T2*-weighted sequence (TR=8000, TE=50, 180 refocusing pulse offset by −25 ms; FOV=40×20 cm; in-plane resolution=3.125 mm; through-plane resolution=8 mm; 15 contiguous axial slices covering the whole brain) to measure ‘activation’ (local changes in blood flow and oxygenation) (Kwong et al., 1992, Proc. Natl. Acad. Sci. 89:5675-5679; Ogawa et al., 1992, Proc. Natl. Acad. Sci. 89:5957-5955; Bandettini et al., 1992, Magn. Reson. Med. 25:390-397). Images were acquired interleaved for 136 time points for each infusion.
Motion correction: To reduce head motion, each subject was positioned using a bitebar, and echo-planar data was motion corrected using an algorithm (Jiang et al., 1995, Hun. Brain Mapp. 3:1-12) adapted from Woods et al (1992), and described elsewhere (Breiter et al., 1996, Arch. Gen. Psychiatry 53:595-606). […] After motion correction, time-series data were inspected to assure that no data set evidenced residual motion in the form of cortical rim or ventricular artifacts >1 voxel.
Talairach transformation: Each individual's set of infusion related functional images, along with the associated conventional structural scans, were transformed into Talairach space (Talairach et al., 1988, New York: Thieme Medical Publishers; Breiter et al., 1996, Arch. Gen. Psychiatry 53:595-606; Breiter et al., 1996, Neuron 17:875-887) and resliced in the coronal orientation over 57 slices with isotropic voxel dimensions (x,y,z=3.125 mm). […]

rat frontal cortex = experiment: BOLD fMRI in drug-naive rat after IV cocaine; format: in vivo
Method: All procedures were carried out in accordance with NIH guidelines. Male Harlan Sprague-Dawley rats (225-300 gm) were anesthetized briefly with 1.5% halothane in oxygen for insertion of left femoral arterial and venous cannulae and placement of tracheostomy for mechanical ventilation (using a 16 gauge intravenous catheter, Inste-W, Becton Dickinson, Sandy, Utah). All wounds were infiltrated with 1% lidocaine before incision. Following surgery, the inspired halothane concentration was reduced to 0.7% and rats were paralyzed with 2 mg/kg intravenous pancuronium, followed by a continuous intravenous infusion of pancuronium at 2 mg/kg/hr. Pancuronium was dissolved in normal saline administered at 5 ml/kg/hr. Rats were mechanically ventilated (in a small animal volume controlled ventilator, Harvard Apparatus, Inc., South Natick, Mass.) with a 80/20 air/oxygen mixture, an inspiratory to expiratory ratio of 1:1, and an initial tidal volume of 3.0 ml at a rate of 40 breaths per minute. […] Arterial blood samples (150 μl) withdrawn from cannula were analyzed for arterial partial pressures of oxygen, carbon dioxide, and pH (Ciba-Coming Model 1304) before administration of drugs, and at the end of each experiment before sacrifice, to ensure animal stability. Arterial blood pressure and rectal temperature were monitored throughout the experiment. […]

[3] = test system: Male Harlan Sprague-Dawley rats; experiment: Arterial blood pressure and heart rate monitoring in rat
Method: All procedures were carried out in accordance with NIH guidelines. Male Harlan Sprague-Dawley rats (225-300 gm) were anesthetized briefly with 1.5% halothane in oxygen for insertion of left femoral arterial and venous cannulae and placement of tracheostomy for mechanical ventilation (using a 16 gauge intravenous catheter, Inste-W, Becton Dickinson, Sandy, Utah). All wounds were infiltrated with 1% lidocaine before incision. Following surgery, the inspired halothane concentration was reduced to 0.7% and rats were paralyzed with 2 mg/kg intravenous pancuronium, followed by a continuous intravenous infusion of pancuronium at 2 mg/kg/hr. Pancuronium was dissolved in normal saline administered at 5 ml/kg/hr. Rats were mechanically ventilated (in a small animal volume controlled ventilator, Harvard Apparatus, Inc., South Natick, Mass.) with a 80/20 air/oxygen mixture, an inspiratory to expiratory ratio of 1:1, and an initial tidal volume of 3.0 ml at a rate of 40 breaths per minute. Ventilation parameters were adjusted to maintain normal arterial blood gases (pH=7.40±0.01, PaCO2=40±2, PaO2=145±10). Arterial blood samples (150 μl) withdrawn from cannula were analyzed for arterial partial pressures of oxygen, carbon dioxide, and pH (Ciba-Coming Model 1304) before administration of drugs, and at the end of each experiment before sacrifice, to ensure animal stability. Arterial blood pressure and rectal temperature were monitored throughout the experiment. […] Rats torsos were wrapped in two heating blankets (Gaymar, Orchid Park, N.Y.) circulating warm water to maintain core temperature at 37-38° C. […]
Regional cortical blood flow was determined by LDF (Perimed, PF2B, Stockholm, Sweden) as described previously (Ayata, et al., 1996, J. Cereb. Blood Flow Metab., 16:539-541). […] All data were collected, stored, and analyzed using MacLab/8 data acquisition and analysis system (ADInstruments, Mountain View, Calif.). Arterial pressure was continuously monitored and the data stored; heart rate was calculated from arterial pressure pulses by the data acquisition software. […]

SMILES: COC(=O)[C@H]1[C@@H](OC(=O)c2ccccc2)C[C@@H]2CC[C@H]1N2C [cocaine]
- time to peak cocaine plasma concentration, mean±SD ([1]; 4 subjects with re-test experiments): 6.0 ± 2.9 min
- time to peak cocaine plasma concentration, mean±SD ([1]; initial series of experiments, 0.6 mg/kg): 7.6 ± 4.2 min and ~7 min
- Cmax ([1]; 0.6 mg/kg, n=7, range over subjects, read-out: Peak plasma cocaine levels (Cmax), range): 197 to 893 ng/mL
- Cmax ([1]; 0.6 mg/kg, n=7 subjects with complete data, read-out: Peak plasma cocaine levels (Cmax), mean): 389 ± 233 ng/mL
- percent signal change, NAc/SCC Left ([2]; retest condition): 2.3%
- percent signal change, NAc/SCC Right ([2]; retest condition): 2.1%
- percent signal change, NAc/SCC Left ([2]; test condition): 3.8%
- percent signal change, NAc/SCC Right ([2]; test condition): 2.4%
- time of return of BOLD contrast to baseline (rat frontal cortex; cocaine 0.5 mg/kg IV, after infusion): 20 min
- maximal R2 (BOLD contrast) (rat frontal cortex; cocaine 1 mg/kg IV): 2.5 ± 0.6 s⁻¹
- adverse cardiovascular response ([3]; cocaine doses above 5 mg/kg IV): profound hypotension and cardiac arrhythmia
- transient increase in arterial blood pressure ([3]; cocaine infusion 0.5 mg/kg): 5-10 mm Hg
